Columns and labels:
[1] = molecular target: T1, porcine pancreas α-amylase (Sus scrofa, UniProt P00690); experiment: Inhibition kinetics of α-amylase (Lineweaver–Burk and Dixon plots); settings: for Inhibition Mode, α-Amylase: Lineweaver–Burk plots
T1 sequence (P00690 16-511): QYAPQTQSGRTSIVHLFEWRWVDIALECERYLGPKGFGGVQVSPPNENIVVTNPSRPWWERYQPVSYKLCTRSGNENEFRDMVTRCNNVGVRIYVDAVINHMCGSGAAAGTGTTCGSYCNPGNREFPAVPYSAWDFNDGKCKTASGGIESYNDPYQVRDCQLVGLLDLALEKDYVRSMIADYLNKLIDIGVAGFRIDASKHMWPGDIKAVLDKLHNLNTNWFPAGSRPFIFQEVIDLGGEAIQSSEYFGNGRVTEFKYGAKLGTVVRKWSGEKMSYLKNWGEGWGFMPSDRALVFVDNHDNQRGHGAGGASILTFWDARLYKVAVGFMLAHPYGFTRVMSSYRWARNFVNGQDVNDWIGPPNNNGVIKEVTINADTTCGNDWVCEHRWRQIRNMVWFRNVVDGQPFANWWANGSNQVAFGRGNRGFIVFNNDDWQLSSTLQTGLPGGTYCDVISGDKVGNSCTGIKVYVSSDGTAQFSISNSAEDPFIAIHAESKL
Description: Using Lineweaver–Burk plots, the mode of inhibition was established, followed by secondary plots (Dixon plots) depending on the established mode of inhibition. The following equation was used to obtain the inhibition constants (Ki) [15]: v=Vmax ×S/Km(1+[I]/Ki)+S(1+[I]/αKi) where S and I are the concentrations of the substrate and inhibitor, respectively; Vmax is the maximum velocity; Km is the Michaelis–Menten constant; Ki is the competitive inhibition constant; and αKi is the uncompetitive inhibition constant.
Lineweaver–Burk plots on monoreplicate tests were performed followed by Dixon secondary plots to determine the inhibition constants. The means of the observed triplicate inhibition constants were subjected to analysis of variance with Tukey HSD/Tukey Kramer post-analysis to compare means. The least significant difference was considered at p < 0.05 and the coefficient of determination (R^2) was obtained as the average of the regression curves from Dixon plots of individual experiments.

[2] = molecular target: yeast α-glucosidase (Saccharomyces cerevisiae, UniProt P53341); experiment: Inhibition kinetics of α-glucosidase (Lineweaver–Burk and Dixon plots); type: biochemical; settings: for Inhibition Mode, α-Glucosidase: Lineweaver–Burk plots
yeast α-glucosidase, sequence (P53341 whole entry): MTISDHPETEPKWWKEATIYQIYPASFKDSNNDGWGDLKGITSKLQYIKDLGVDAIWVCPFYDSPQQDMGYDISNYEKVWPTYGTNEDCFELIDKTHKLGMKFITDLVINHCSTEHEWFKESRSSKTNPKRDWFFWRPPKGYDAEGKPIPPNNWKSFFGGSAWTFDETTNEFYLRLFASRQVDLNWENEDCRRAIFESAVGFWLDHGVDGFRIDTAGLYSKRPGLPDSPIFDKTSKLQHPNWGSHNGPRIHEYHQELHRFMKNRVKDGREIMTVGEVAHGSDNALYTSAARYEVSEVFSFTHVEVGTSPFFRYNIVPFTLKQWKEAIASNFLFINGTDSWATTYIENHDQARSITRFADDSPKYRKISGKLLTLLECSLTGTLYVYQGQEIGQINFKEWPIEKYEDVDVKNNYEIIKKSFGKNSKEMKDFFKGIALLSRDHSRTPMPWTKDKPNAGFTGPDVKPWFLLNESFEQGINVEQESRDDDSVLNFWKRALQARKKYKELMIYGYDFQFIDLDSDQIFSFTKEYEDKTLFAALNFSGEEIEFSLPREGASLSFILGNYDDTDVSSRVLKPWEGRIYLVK

[3] = molecular target: α-glycosidase; set-up: method as in PMID 32889048; settings: read-out: IC50 against α-glycosidase; cited from earlier work
[4] = Lineweaver-Burk plot, competitive inhibition

Compound | Inhibition Mode, α-Amylase [1] | Inhibition Mode, α-Glucosidase [2] | IC50 [3] | 1/Vmax, α-amylase [1, 4] | 1/Vmax, α-glucosidase [2, 4]
6-hydroxy-N-methyldecarine [Compound 8] | Mixed | Mixed |  |  | 
CC(C)CNC(=O)/C=C/c1ccc2c(c1)OCO2 [Compound 4, fagaramide] | Non-competitive | Non-competitive |  |  | 
C[C@H]1O[C@H](O[C@H]2[C@H](O)[C@@H](O)[C@@H](O[C@H]3[C@H](O)[C@@H](O)C(O)O[C@@H]3CO)O[C@@H]2CO)[C@H](O)[C@@H](O)[C@@H]1N[C@H]1C=C(CO)[C@@H](O)[C@H](O)[C@H]1O (stereo partly shown) [Acarbose, acarbose, reference compound] | Competitive | Competitive | 44.9 µM |  | 
OCC1OC1c1ccc2c(c1)OCO2 (stereo not shown) [Compound 10, 2,3-epoxy-6,7-methylenedioxyconiferol] | Competitive | Competitive |  | 24.47 s⁻¹ | 20.25 s⁻¹
CC(C)CNC(=O)/C=C/C/C=C/c1ccc2c(c1)OCO2 [Compound 1, Chalybemide A] | Non-competitive | Non-competitive |  |  | 
COc1ccc2c(cnc3c4cc5c(cc4ccc23)OCO5)c1OC [Compound 6, norchelerythrine] | Mixed | Mixed |  |  | 
CC(C)(O)CNC(=O)/C=C/c1ccccc1 [Compound 2, chalybemide B] | Non-competitive | Uncompetitive |  |  | 
COc1ccc2c(OC)c3ccoc3nc2c1OC [Compound 5, skimmianine] | Mixed | Mixed |  |  | 
COc1ccc(CN(C)C(=O)c2ccccc2OC)cc1 [Compound 3, chalybemide C] | Non-competitive | Non-competitive |  |  | 
COc1cc(-c2cc3cc(/C=C/CO)cc(OC)c3o2)ccc1O [Compound 9, ailanthoidol] | Uncompetitive | Uncompetitive |  |  | 
c1cc2c(cc1C1OCC3C(c4ccc5c(c4)OCO5)OCC13)OCO2 (stereo not shown) [Compound 11, sesamine] | Non-competitive | non-competitive |  |  | 

Source: article PMC10059848, “Inhibition Kinetics and Theoretical Studies on Zanthoxylum chalybeum Engl. Dual Inhibitors of α-Glucosidase and α-Amylase” (Journal of Xenobiotics, 2023)
